Experimental data from ChEMBL document CHEMBL3877294, “Discovery of Ruzasvir (MK-8408): A Potent, Pan-Genotype HCV NS5A Inhibitor with Optimized Activity against Common Resistance-Associated Polymorphisms” (J Med Chem, 2017).
Changes are numbered by the printed parent chain.

How the values were obtained:
[1] = system: Nonstructural protein 5A (Hepatitis C virus), Q5L478 [UNDEFINED MUTATION]; assay: Inhibition of HCV genotype-1a NS5A Q30R mutant infected in human HuH7 cells by luciferase reporter gene assay; assay type: cell-based; conditions: Hepatitis C virus subtype 1a; Huh-7
[2] = system: Huh-7; assay: Inhibition of HCV genotype-6d NS5A infected in human HuH7 cells by luciferase reporter gene assay; assay type: cell-based; conditions: Hepatitis C virus subtype 6d
[3] = system: Huh-7; assay: Inhibition of HCV genotype-1b NS5A infected in human HuH7 cells by luciferase reporter gene assay; assay type: cell-based; conditions: Hepatitis C virus subtype 1b
[4] = Selectivity ratio for EC90 for HCV genotype-2b NS5A harboring methionine at position 31 to EC90 for HCV genotype-1a NS5A
[5] = system: T1, Nonstructural protein 5A (Hepatitis C virus), Q5L478 [Y93C]; assay: Inhibition of HCV genotype-1a NS5A Y93C mutant infected in human HuH7 cells by luciferase reporter gene assay; assay type: cell-based; conditions: Hepatitis C virus subtype 1a; Huh-7
T1 sequence (whole entry): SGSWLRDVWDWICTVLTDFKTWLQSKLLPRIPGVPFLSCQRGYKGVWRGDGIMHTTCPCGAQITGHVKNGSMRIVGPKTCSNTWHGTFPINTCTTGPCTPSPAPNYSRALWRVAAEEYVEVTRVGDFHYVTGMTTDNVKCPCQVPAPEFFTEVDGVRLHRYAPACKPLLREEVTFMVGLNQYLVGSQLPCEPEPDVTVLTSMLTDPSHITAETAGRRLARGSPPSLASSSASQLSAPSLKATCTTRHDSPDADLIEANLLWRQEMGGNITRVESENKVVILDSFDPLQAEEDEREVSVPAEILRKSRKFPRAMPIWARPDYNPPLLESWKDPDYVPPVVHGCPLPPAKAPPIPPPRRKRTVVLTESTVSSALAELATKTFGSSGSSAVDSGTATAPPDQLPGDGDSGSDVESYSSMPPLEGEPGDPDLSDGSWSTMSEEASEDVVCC

[6] = system: Huh-7; assay: Inhibition of HCV genotype-1a NS5A infected in human HuH7 cells by luciferase reporter gene assay; assay type: cell-based; conditions: Hepatitis C virus subtype 1a
[7] = system: Huh-7; assay: Inhibition of HCV genotype-4a NS5A infected in human HuH7 cells by luciferase reporter gene assay; assay type: cell-based; conditions: Hepatitis C virus subtype 4a
[8] = system: Hepatitis C virus subtype 1a; assay: Selectivity ratio for EC90 for HCV genotype-1a NS5A L31V mutant to EC90 for HCV genotype-1a NS5A
[9] = system: Huh-7; assay: Inhibition of HCV genotype-2a NS5A infected in human HuH7 cells by luciferase reporter gene assay; assay type: cell-based; conditions: Hepatitis C virus subtype 2a
[10] = AUC (0 to t) in dog at 5 mg/kg, po measured after 24 hrs by LC/MS method; assay type: ADME, organism-based, Canis lupus familiaris; parameters: time < 24 hr, dose 5 mg/kg, route oral; conditions: in vivo
[11] = system: Hepatitis C virus subtype 1a; assay: Selectivity ratio for EC90 for HCV genotype-1a NS5A Y93H mutant to EC90 for HCV genotype-1a NS5A
[12] = Drug uptake in dog at 5 mg/kg, po measured at 24 hrs post dose by LC/MS method; assay type: ADME, organism-based, Canis lupus familiaris; conditions: in vivo, read-out: Drug uptake
[13] = system: T2, Nonstructural protein 5A (Hepatitis C virus), Q5L478 [Y93H]; assay: Inhibition of HCV genotype-1b NS5A Y93H mutant infected in human HuH7 cells by luciferase reporter gene assay; assay type: cell-based; conditions: Hepatitis C virus subtype 1b; Huh-7
T2 sequence (whole entry): T1 sequence (whole entry) with C93H

[14] = Oral bioavailability in dog at 5 mg/kg measured after 24 hrs by LC/MS method; assay type: ADME, organism-based, Canis lupus familiaris; conditions: in vivo
[15] = Selectivity ratio for EC90 for HCV genotype-4a NS5A to EC90 for HCV genotype-1a NS5A
[16] = Drug uptake in rat at 10 mg/kg, po measured at 24 hrs post dose by LC/MS method; assay type: ADME, organism-based; conditions: in vivo, read-out: Drug uptake
[17] = system: T2, Nonstructural protein 5A (Hepatitis C virus), Q5L478 [Y93H]; assay: Inhibition of HCV genotype-1a NS5A Y93H mutant infected in human HuH7 cells by luciferase reporter gene assay; assay type: cell-based; conditions: Hepatitis C virus subtype 1a; Huh-7
[18] = Plasma clearance in rat at 2 mg/kg, iv measured after 24 hrs by LC/MS method; assay type: ADME, organism-based
[19] = system: Huh-7; assay: Inhibition of HCV genotype-2b NS5A harboring methionine at position 31 infected in human HuH7 cells by luciferase reporter gene assay; assay type: cell-based; conditions: Hepatitis C virus subtype 2b
[20] = Oral bioavailability in rat at 10 mg/kg measured after 24 hrs by LC/MS method; assay type: ADME, organism-based; conditions: in vivo
[21] = AUC in rat at 10 mg/kg, po measured after 24 hrs by LC/MS method; assay type: ADME, organism-based; parameters: time < 24 hr, dose 10 mg/kg, route oral; conditions: in vivo
[22] = system: Nonstructural protein 5A (Hepatitis C virus), Q5L478 [UNDEFINED MUTATION]; assay: Inhibition of HCV genotype-1a NS5A L31V mutant infected in human HuH7 cells by luciferase reporter gene assay; assay type: cell-based; conditions: Hepatitis C virus subtype 1a; Huh-7
[23] = system: Huh-7; assay: Inhibition of HCV genotype-5a NS5A infected in human HuH7 cells by luciferase reporter gene assay; assay type: cell-based; conditions: Hepatitis C virus subtype 5a
[24] = Selectivity ratio for EC90 for HCV genotype-3a NS5A to EC90 for HCV genotype-1a NS5A
[25] = Half life in dog at 1 mg/kg, iv by LC/MS method; assay type: ADME, organism-based, Canis lupus familiaris; conditions: in vivo
[26] = Half life in rat at 2 mg/kg, iv by LC/MS method; assay type: ADME, organism-based; conditions: in vivo
[27] = Plasma clearance in dog at 1 mg/kg, iv measured after 24 hrs by LC/MS method; assay type: ADME, organism-based, Canis lupus familiaris
[28] = system: Huh-7; assay: Inhibition of HCV genotype-3a NS5A infected in human HuH7 cells by luciferase reporter gene assay; assay type: cell-based; conditions: Hepatitis C virus subtype 3a
[29] = system: Huh-7; assay: Inhibition of HCV genotype-6 NS5A infected in human HuH7 cells by luciferase reporter gene assay; assay type: cell-based; conditions: Hepatitis C virus genotype 6
[30] = Half life in rhesus monkey at 1 mg/kg, iv by LC/MS/MS method; assay type: ADME, organism-based, Macaca mulatta; conditions: in vivo
[31] = Plasma clearance in rhesus monkey at 1 mg/kg, iv measured after 48 hrs by LC/MS/MS method; assay type: ADME, organism-based, Macaca mulatta
[32] = AUC (0 to t) in rhesus monkey at 5 mg/kg, po measured after 48 hrs by LC/MS/MS method; assay type: ADME, organism-based, Macaca mulatta; parameters: dose 5 mg/kg, time < 48 hr, route oral; conditions: in vivo
[33] = Oral bioavailability in rhesus monkey at 5 mg/kg measured at 48 hrs post dose by LC/MS/MS method; assay type: ADME, organism-based, Macaca mulatta; conditions: in vivo
[34] = AUC (0 to t) in rat at 10 mg/kg, po measured after 24 hrs by LC/MS method; assay type: ADME, organism-based; parameters: dose 10 mg/kg, time < 24 hr, route oral; conditions: in vivo

| SMILES | Selectivity ratio [4] | EC90 [6] [nM] | EC90 [7] [nM] | Selectivity ratio [8] | AUC(0-t) at 24 h [10] [µM·h] | Selectivity ratio [11] | concentration at 24 h [12] [nM] | bioavailability [14] [%] | Selectivity ratio [15] | concentration at 24 h [16] [nM] | EC90 [17] [nM] | clearance [18] [mL/min/kg] | EC90 [19] [nM] | bioavailability [20] [%] | AUC at 24 h [21] [µM·h] | EC90 [22] [nM] | Selectivity ratio [24] | half-life [25] [h] | half-life [26] [h] | EC90 [28] [nM] | other results |
| --- | --- | --- | --- | --- | --- | --- | --- | --- | --- | --- | --- | --- | --- | --- | --- | --- | --- | --- | --- | --- | --- |
| COC(=O)N[C@H](C(=O)N1CCC[C@H]1c1ncc(-c2cc(F)c3c(c2)O[C@@H](c2cnc(C4CC4)s2)n2c-3cc3cc(-c4cnc([C@@H]5CCCN5C(=O)[C@@H](NC(=O)OC)C(C)C)[nH]4)ccc32)[nH]1)C(C)C [RUZASVIR] | 12 | 0.003 | 0.007 to 0.011 | 5 | 12.9 | 22 | 43 | 22 | 2 | 3 | 0.067 | 13 | 0.036 | 4 | 0.4 | 0.016 | 2 | 4 | 4.7 | 0.006 to 0.007 | EC90 [1]: 0.011 nM; EC90 [2]: 0.027 nM; EC90 [3]: 0.003 nM; EC90 [5]: 0.002 nM; EC90 [9]: 0.001 nM; EC90 [13]: 0.009 nM; EC90 [23]: 0.001 nM; clearance [27]: 1.6 mL/min/kg; EC90 [29]: 0.007 nM |
| CCc1ccc([C@@H]2Oc3cc(-c4cnc([C@@H]5CCCN5C(=O)[C@@H](NC(=O)OC)C(C)C)[nH]4)cc(F)c3-c3cc4cc(-c5cnc([C@@H]6CCCN6C(=O)[C@@H](NC(=O)OC)C(C)C)[nH]5)ccc4n32)s1 | 300 | 0.003 | 0.003 | 22 | 13.8 | 20 | 172 | 21 | 1 | 17 | 0.06 | 8 | 0.9 | 3 | 0.7 | 0.067 | 1 | 15 | 6.4 | 0.002 | clearance [27]: 1.7 mL/min/kg |
| COC(=O)N[C@H](C(=O)N1CCC[C@H]1c1nc(-c2ccc3c(c2)O[C@@H](c2ccccc2)n2c-3cc3cc(-c4c[nH]c([C@@H]5CCCN5C(=O)[C@@H](NC(=O)OC)C(C)C)n4)ccc32)c[nH]1)C(C)C |  | 0.006 | 0.016 |  |  |  |  |  |  |  |  |  | 11 |  |  |  |  |  |  | 0.12 | EC90 [1]: 2.5 nM; EC90 [2]: 0.008 nM; EC90 [3]: 0.006 nM; EC90 [5]: 1.1 nM; EC90 [9]: 0.019 nM; EC90 [13]: 0.89 nM; EC90 [23]: 0.002 nM; EC90 [29]: 0.017 nM |
| COC(=O)N[C@H](C(=O)N1CCC[C@H]1c1ncc(-c2cc(F)c3c(c2)OC(c2cc(C(C)C)no2)n2c-3cc3cc(-c4cnc([C@@H]5CCCN5C(=O)[C@@H](NC(=O)OC)C(C)C)[nH]4)ccc32)[nH]1)C(C)C (stereo partly drawn) |  | 0.002 |  |  |  |  |  |  |  |  | 0.42 |  | 0.92 |  |  | 0.056 |  |  |  | 0.019 | half-life [30]: 10.2 h; clearance [31]: 2.2 mL/min/kg; AUC(0-t) at 48 h [32]: 3.9 µM·h; bioavailability [33]: 10% |
| COC(=O)N[C@H](C(=O)N1CCC[C@H]1c1ncc(-c2cc(F)c3c(c2)OC(c2cnc(C4CC4)s2)n2c-3cc3cc(-c4cnc([C@@H]5C[C@H]6C[C@H]6N5C(=O)[C@@H](NC(=O)OC)C(C)C)[nH]4)ccc32)[nH]1)C(C)C (stereo partly drawn) |  | 0.006 | 0.006 |  |  |  |  |  |  | 1.9 | 0.021 | 12 | 0.076 | 4 |  | 0.007 |  |  | 3.9 | 0.011 | AUC(0-t) at 24 h [34]: 0.52 µM·h |
| CCCc1ncc(C2Oc3cc(-c4cnc([C@@H]5CCCN5C(=O)[C@@H](NC(=O)OC)C(C)C)[nH]4)cc(F)c3-c3cc4cc(-c5cnc([C@@H]6CCCN6C(=O)[C@@H](NC(=O)OC)C(C)C)[nH]5)ccc4n32)s1 (stereo partly drawn) | 140 | 0.001 | 0.01 | 20 | 11 | 88 | 76.7 | 23 | 10 | 4 | 0.088 | 16 | 0.14 | 7 | 0.8 | 0.02 | 2 | 11.5 | 4.3 | 0.002 | clearance [27]: 1.8 mL/min/kg |
